Results from patent US4933456A, “Dipyridoxyl phosphate NMRI contrast agents” (Salutar, Inc., priority 1987, dated 1990).
Where two headings read alike, the source gives them in different places.

Columns and labels:
[1] = 10 MHz, 37° C
Method: The relations of protons present in water and plasma exposed to the chelate product of Example 7 was tested by NMR for relaxities, in msec, at 10 MHz, 37° C.

[2] = defects not observable without Mn(DPDP)
[3] = test system: selected body organs; conditions: for T1: 0.01 mmol/kg i.v.
Method: Each of seven rabbits was injected intravenously with 0.01 mmol/kg of the solution obtained in Example 7. The rabbits were sacrificed at 0.25, 0.50, 1.0, 2.0, 4, 6 and 24 hours post-injection, and the proton relation values of selected body organs were measured with NMR, in vitro, at 10 MHz.

[4] = test system: selected body organs; conditions: 30 min
Method: Each of four rabbits was injected intravenously with one of the following amounts of the solution obtained in Example 7: 0.01 mmoles/kg, 0.05 mmoles/kg, 0.10 mmoles/kg and 0.20 mmoles/kg. The rabbits were sacrificed 30 min post injection, and the proton relaxation values of selected body organs were measured with NMR, in vitro at 10 MHz.

Structure (SMILES): Cc1ncc(COP(=O)(O)O)c(CN(CCN(CC(=O)[O-])Cc2c(COP(=O)(O)O)cnc(C)c2O)CC(=O)[O-])c1O.[Mn+2] [Mn(DPDP), sodium-calcium salt of a manganese chelate complex of N,N,-bis-(pyridoxal-5-phosphate)ethylenediamine-N,N'-diacetic acid or N,N'-bis(3-hydroxy-2-methyl-5-phosphonomethyl-4-pyridylmethyl)ethylenediamine-N,N'-diacetic acid]
- T1 (Plasma) ([1]; 0.000039 molar): 1103 ms
- T1 (Plasma) ([1]; 0.000078 molar): 995 ms
- T1 (Plasma) ([1]; 0.000156 molar): 856 ms
- T1 (Water) ([1]; 0.000156 molar): 1470 ms
- T1 (Plasma) ([1]; 0.000312 molar): 624 ms
- T1 (Water) ([1]; 0.000312 molar): 1083 ms
- T1 (Plasma) ([1]; 0.000625 molar): 398 ms
- T1 (Water) ([1]; 0.000625 molar): 639 ms
- T1 (Plasma) ([1]; 0.00125 molar): 240 ms
- T1 (Water) ([1]; 0.00125 molar): 332 ms
- T1 (Plasma) ([1]; 0.0025 molar): 139 ms
- T1 (Water) ([1]; 0.0025 molar): 175 ms
- T2 (Plasma) ([1]; 0.0025 molar): 124 ms
- T1 (Plasma) ([1]; 0.005 molar): 74 ms
- T1 (Water) ([1]; 0.005 molar): 100 ms
- T2 (Plasma) ([1]; 0.005 molar): 68 ms
- T2 (Water) ([1]; 0.005 molar): 86 ms
- T1 (Plasma) ([1]; 0.010 molar): 40 ms
- T1 (Water) ([1]; 0.010 molar): 43 ms
- T2 (Plasma) ([1]; 0.010 molar): 34 ms
- T2 (Water) ([1]; 0.010 molar): 41 ms
- detection of blood-brain barrier defects by NMRI tomography [2]: defects were observed by NMRI tomography
- T1 ([3]; Bile, 0.25 hr): 160 ms
- T1 ([3]; Bile, 0.50 hr): 46 ms
- T1 ([3]; Bile, 1.0 hr): 25 ms
- T1 ([3]; Bile, 2 hr): 21 ms
- T1 ([3]; Bile, 4 hr): < 1 ms
- T1 ([3]; Bile, 6 hr): 14 ms
- T1 ([3]; Bile, 24 hr): 107 ms
- T1 ([3]; Heart, 0.25 hr): 231 ms
- T1 ([3]; Heart, 0.50 hr): 352 ms
- T1 ([3]; Heart, 1.0 hr): 381 ms
- T1 ([3]; Heart, 2 hr): 507 ms
- T1 ([3]; Heart, 4 hr): 522 ms
- T1 ([3]; Heart, 6 hr): 663 ms
- T1 ([3]; Heart, 24 hr): 660 ms
- T1 ([3]; Liver, 0.25 hr): 68 ms
- T1 ([3]; Liver, 0.50 hr): 76 ms
- T1 ([3]; Liver, 1.0 hr): 48 ms
- T1 ([3]; Liver, 2 hr): 48 ms
- T1 ([3]; Liver, 4 hr): 145 ms
- T1 ([3]; Liver, 6 hr): 209 ms
- T1 ([3]; Liver, 24 hr): 315 ms
- T1 ([3]; Renal cortex, 0.25 hr): 202 ms
- T1 ([3]; Renal cortex, 0.50 hr): 191 ms
- T1 ([3]; Renal cortex, 1.0 hr): 229 ms
- T1 ([3]; Renal cortex, 2 hr): 192 ms
- T1 ([3]; Renal cortex, 4 hr): 210 ms
- T1 ([3]; Renal cortex, 6 hr): 239 ms
- T1 ([3]; Renal cortex, 24 hr): 328 ms
- T1 ([3]; Renal medulla, 0.25 hr): 192 ms
- T1 ([3]; Renal medulla, 0.50 hr): 231 ms
- T1 ([3]; Renal medulla, 1.0 hr): 236 ms
- T1 ([3]; Renal medulla, 2 hr): 310 ms
- T1 ([3]; Renal medulla, 4 hr): 340 ms
- T1 ([3]; Renal medulla, 6 hr): 375 ms
- T1 ([3]; Renal medulla, 24 hr): 563 ms
- clearance through both the renal and hepatobiliary systems, time post-injection ([3]; rabbit, i.v.): 6 to 8 h
- uptake and clearance in the liver, renal cortex, renal medulla and heart ([3]; rabbit, i.v.): rapid uptake and clearance
- uptake by the heart through the dose range studied ([4]; 0.05-0.20 mmol/kg, i.v.): continues to uptake
- T1 ([4]; Blood, 0.01 mmol/kg i.v.): 844 ms
- T1 ([4]; Blood, 0.05 mmol/kg i.v.): 613 ms
- T1 ([4]; Blood, 0.10 mmol/kg i.v.): 506 ms
- T1 ([4]; Blood, 0.20 mmol/kg i.v.): 411 ms
- T1 ([4]; Brain, 0.01 mmol/kg i.v.): 554 ms
- T2 ([4]; Brain, 0.01 mmol/kg i.v.): 76 ms
- T1 ([4]; Brain, 0.05 mmol/kg i.v.): 496 ms
- T2 ([4]; Brain, 0.05 mmol/kg i.v.): 82 ms
- T1 ([4]; Brain, 0.10 mmol/kg i.v.): 590 ms
- T2 ([4]; Brain, 0.10 mmol/kg i.v.): 90 ms
- T1 ([4]; Brain, 0.20 mmol/kg i.v.): 352 ms
- T2 ([4]; Brain, 0.20 mmol/kg i.v.): 66 ms
- T1 ([4]; Fat, 0.05 mmol/kg i.v.): 200 ms
- T2 ([4]; Fat, 0.05 mmol/kg i.v.): 139 ms
- T1 ([4]; Fat, 0.10 mmol/kg i.v.): 183 ms
- T2 ([4]; Fat, 0.10 mmol/kg i.v.): 115 ms
- T1 ([4]; Fat, 0.20 mmol/kg i.v.): 192 ms
- T1 ([4]; Heart, 0.05 mmol/kg i.v.): 353 ms
- T2 ([4]; Heart, 0.05 mmol/kg i.v.): 54 ms
- T1 ([4]; Heart, 0.10 mmol/kg i.v.): 300 ms
- T2 ([4]; Heart, 0.10 mmol/kg i.v.): 51 ms
- T1 ([4]; Heart, 0.20 mmol/kg i.v.): 205 ms
- T2 ([4]; Heart, 0.20 mmol/kg i.v.): 47 ms
- T1 ([4]; Large Int., 0.01 mmol/kg i.v.): 283 ms
- T2 ([4]; Large Int., 0.01 mmol/kg i.v.): 64 ms
- T1 ([4]; Large Int., 0.05 mmol/kg i.v.): 365 ms
- T2 ([4]; Large Int., 0.05 mmol/kg i.v.): 83 ms
- T1 ([4]; Large Int., 0.10 mmol/kg i.v.): 290 ms
- T2 ([4]; Large Int., 0.10 mmol/kg i.v.): 57 ms
- T1 ([4]; Large Int., 0.20 mmol/kg i.v.): 256 ms
- T2 ([4]; Large Int., 0.20 mmol/kg i.v.): 74 ms
- T1 ([4]; Liver, 0.01 mmol/kg i.v.): 176 ms
- T2 ([4]; Liver, 0.01 mmol/kg i.v.): 39 ms
- T1 ([4]; Liver, 0.05 mmol/kg i.v.): 76 ms
- T2 ([4]; Liver, 0.05 mmol/kg i.v.): 31 ms
- T1 ([4]; Liver, 0.10 mmol/kg i.v.): 65 ms
- T2 ([4]; Liver, 0.10 mmol/kg i.v.): 23 ms
- T1 ([4]; Liver, 0.20 mmol/kg i.v.): 68 ms
- T2 ([4]; Liver, 0.20 mmol/kg i.v.): 25 ms
- T1 ([4]; Lung, 0.05 mmol/kg i.v.): 575 ms
- T2 ([4]; Lung, 0.05 mmol/kg i.v.): 113 ms
- T1 ([4]; Lung, 0.10 mmol/kg i.v.): 435 ms
- T2 ([4]; Lung, 0.10 mmol/kg i.v.): 61 ms
- T1 ([4]; Lung, 0.20 mmol/kg i.v.): 376 ms
- T2 ([4]; Lung, 0.20 mmol/kg i.v.): 63 ms
- T1 ([4]; Renal Cort., 0.01 mmol/kg i.v.): 298 ms
- T2 ([4]; Renal Cort., 0.01 mmol/kg i.v.): 65 ms
- T1 ([4]; Renal Cort., 0.05 mmol/kg i.v.): 210 ms
- T2 ([4]; Renal Cort., 0.05 mmol/kg i.v.): 57 ms
- T1 ([4]; Renal Cort., 0.10 mmol/kg i.v.): 188 ms
- T2 ([4]; Renal Cort., 0.10 mmol/kg i.v.): 55 ms
- T1 ([4]; Renal Cort., 0.20 mmol/kg i.v.): 143 ms
- T2 ([4]; Renal Cort., 0.20 mmol/kg i.v.): 53 ms
- T1 ([4]; Renal Med., 0.01 mmol/kg i.v.): 502 ms
- T2 ([4]; Renal Med., 0.01 mmol/kg i.v.): 99 ms
- T1 ([4]; Renal Med., 0.05 mmol/kg i.v.): 223 ms
- T2 ([4]; Renal Med., 0.05 mmol/kg i.v.): 57 ms
- T1 ([4]; Renal Med., 0.10 mmol/kg i.v.): 209 ms
- T2 ([4]; Renal Med., 0.10 mmol/kg i.v.): 48 ms
- T1 ([4]; Renal Med., 0.20 mmol/kg i.v.): 127 ms
- T2 ([4]; Renal Med., 0.20 mmol/kg i.v.): 60 ms
- T1 ([4]; Skel. Musc., 0.05 mmol/kg i.v.): 494 ms
- T2 ([4]; Skel. Musc., 0.05 mmol/kg i.v.): 47 ms
- T1 ([4]; Skel. Musc., 0.10 mmol/kg i.v.): 425 ms
- T2 ([4]; Skel. Musc., 0.10 mmol/kg i.v.): 31 ms
- T1 ([4]; Skel. Musc., 0.20 mmol/kg i.v.): 232 ms
- T2 ([4]; Skel. Musc., 0.20 mmol/kg i.v.): 31 ms
- T1 ([4]; Small Int., 0.01 mmol/kg i.v.): 324 ms
- T2 ([4]; Small Int., 0.01 mmol/kg i.v.): 72 ms
- T1 ([4]; Small Int., 0.05 mmol/kg i.v.): 237 ms
- T2 ([4]; Small Int., 0.05 mmol/kg i.v.): 52 ms
- T1 ([4]; Small Int., 0.10 mmol/kg i.v.): 218 ms
- T2 ([4]; Small Int., 0.10 mmol/kg i.v.): 46 ms
- T1 ([4]; Small Int., 0.20 mmol/kg i.v.): 131 ms
- T2 ([4]; Small Int., 0.20 mmol/kg i.v.): 46 ms
- T1 ([4]; Stom., 0.05 mmol/kg i.v.): 245 ms
- T2 ([4]; Stom., 0.05 mmol/kg i.v.): 41 ms
- T1 ([4]; Stom., 0.10 mmol/kg i.v.): 242 ms
- T2 ([4]; Stom., 0.10 mmol/kg i.v.): 52 ms
- T1 ([4]; Stom., 0.20 mmol/kg i.v.): 271 ms
- T2 ([4]; Stom., 0.20 mmol/kg i.v.): 53 ms
- T1 ([4]; Urine, 0.01 mmol/kg i.v.): 821 ms
- T1 ([4]; Urine, 0.05 mmol/kg i.v.): 150 ms
- T2 ([4]; Urine, 0.05 mmol/kg i.v.): 136 ms
- T1 ([4]; Urine, 0.10 mmol/kg i.v.): 90 ms
- T2 ([4]; Urine, 0.10 mmol/kg i.v.): 75 ms
- dose saturating the liver and kidneys ([4]; rabbit, i.v.): 0.10 mmol/kg
- uptake by the brain ([4]; rabbit, i.v.): observed at higher doses
- uptake in the heart, liver and kidneys ([4]; rabbit, i.v.): rapid uptake
